Source: patent US12281095B2, “Pesticidally active diazine-amide compounds” (SYNGENTA CROP PROTECTION AG, priority 2019, dated 2025)

Legend:
Format in all cases: in vivo
[1] = test system: Plutella xylostella (Diamond Back Moth); test: Example B5: Plutella xylostella (Diamond Back Moth), artificial diet, 24-well; conditions: 192 h, application rate of 200 ppm, eggs, 8 days after infestation, read-out: control in at least one of the two categories (mortality or growth inhibition)
Protocol: Example B5: Plutella xylostella (Diamond Back Moth)
24-well microtiter plates with artificial diet were treated with aqueous test solutions prepared from 10′000 ppm DMSO stock solutions by pipetting. After drying, Plutella eggs were pipetted through a plastic stencil onto a gel blotting paper and the plate was closed with it. The samples were assessed for mortality and growth inhibition in comparison to untreated samples 8 days after infestation.

[2] = test system: Chilo suppressalis (Striped Rice Stemborer); test: Example B4: Chilo suppressalis (Striped Rice Stemborer), artificial diet; conditions: 144 h, application rate of 200 ppm, L2 larvae, 6 days after infestation, read-out: control in at least one of the three categories (mortality, anti-feedant or growth inhibition)
Protocol: Example B4: Chilo suppressalis (Striped Rice Stemborer)
24-well microtiter plates with artificial diet were treated with aqueous test solutions prepared from 10′000 ppm DMSO stock solutions by pipetting. After drying, the plates were infested with L2 larvae (6-8 per well). The samples were assessed for mortality, anti-feeding effect, and growth inhibition in comparison to untreated samples 6 days after infestation. Control of Chilo suppressalis by a test sample is given when at least one of the categories mortality, anti-feedant effect, and growth inhibition is higher than the untreated sample.

[3] = test system: Spodoptera littoralis (Egyptian Cotton Leaf Worm); test: Example B9: Spodoptera littoralis (Egyptian Cotton Leaf Worm), sprayed cotton leaf discs; conditions: foliar, 72 h, application rate of 200 ppm, L1 larvae, 3 days after infestation, read-out: control in at least one of the three categories (mortality, anti-feedant or growth inhibition)

Row | Compound | percent control (mortality or growth inhibition) at 200 ppm [1] [%] | percent control (mortality, anti-feedant effect or growth inhibition) at 200 ppm [2] [%] | percent control (mortality, anti-feedant effect or growth inhibition) at 200 ppm [3] [%]
1 | CC(NC(=O)c1cc(C(F)(F)F)cc(C(F)(F)C2CC2)c1)c1nccnc1-c1ccc(C#N)cn1 (stereo not drawn) [P18, N-[1-[3-(5-cyano-2-pyridyl)pyra-zin-2-yl]ethyl]-3-[cyclopropyl(difluoro)methyl]-5-(trifluoromethyl)benzamide] | ≥ 80 | ≥ 80 | ≥ 80
2 | CC(NC(=O)c1cc(OC(F)(F)F)cc(C2(C#N)CC2)c1)c1nccnc1-c1ccc(C#N)cn1 (stereo not drawn) [P45, 3-(1-cyanocyclopropyl)-N-[1-[3-(5-cyano-2-pyridyl)pyrazin-2-yl]ethyl]-5-(trifluorometh-oxy)benzamide] | ≥ 80 | ≥ 80 | –
3 | CC(NC(=O)c1cc(C2CC2)nc(C(F)(F)F)c1)c1nccnc1-c1ccc(C#N)cn1 (stereo not drawn) [P17, N-[1-[3-(5-cyano-2-pyridyl)pyra-zin-2-yl]ethyl]-2-cyclopropyl-6-(trifluoromethyl)pyridine-4-carboxamide] | ≥ 80 | ≥ 80 | ≥ 80
4 | CC(NC(=O)c1cc(C(F)(F)F)cc(C(F)(F)C2CC2)c1)c1nccnc1-c1ccc(OC(F)F)cn1 (stereo not drawn) [P5, 3-[cyclopropyl(difluoro)methyl]-N-[1-[3-[5-(difluoromethoxy)-2-pyridyl]pyrazin-2-yl]ethyl]-5-(trifluoromethyl)benzamide] | ≥ 80 | ≥ 80 | ≥ 80
5 | CC(NC(=O)c1cc(C(F)(F)F)cc(S(=O)(=O)C(F)(F)F)c1)c1nccnc1-c1ccc(OC(F)F)cn1 (stereo not drawn) [P11, N-[1-[3-[5-(difluoromethoxy)-2-pyridyl]pyrazin-2-yl]ethyl]-3-(trifluoromethyl)-5-(trifluoromethylsulfonyl)benzamide] | ≥ 80 | ≥ 80 | ≥ 80
6 | CC(NC(=O)c1cc(C2CC2)cc(C(F)(F)F)c1)c1nccnc1-c1ccc(C#N)cn1 (stereo not drawn) [P14, N-[1-[3-(5-cyano-2-pyridyl)pyra-zin-2-yl]ethyl]-3-cyclopropyl-5-(trifluoromethyl)benzamide] | ≥ 80 | ≥ 80 | ≥ 80
7 | CC(NC(=O)c1cc(C2CC2)nc(C(F)(F)F)c1)c1nccnc1-c1ncc(OCC(F)F)cn1 (stereo not drawn) [P35, 2-cyclopropyl-N-[1-[3-[5-(2,2-difluoroethoxy)pyrimidin-2-yl]pyrazin-2-yl]ethyl]-6-(trifluoromethyl)pyridine-4-carboxamide] | ≥ 80 | ≥ 80 | ≥ 80
8 | CC(NC(=O)c1cc(C(F)(F)F)cc(C(C)(C)C#N)c1)c1nccnc1-c1ccc(OCC(F)(F)F)cn1 (stereo not drawn) [P10, 3-(1-cyano-1-methyl-ethyl)-N-[1-[3-[5-(2,2,2-trifluoroethoxy)-2-pyridyl]pyrazin-2-yl]ethyl]-5-(trifluoromethyl)benzamide] | ≥ 80 | ≥ 80 | ≥ 80
9 | CC(NC(=O)c1cc(C(F)(F)F)cc(C(F)(F)C2CC2)c1)c1nccnc1-c1ccc(OCC(F)F)cn1 (stereo not drawn) [P30, 3-[cyclopropyl(difluoro)methyl]-N-[1-[3-[5-(2,2-difluoroethoxy)-2-pyridyl]pyrazin-2-yl]ethyl]-5-(trifluoromethyl)benzamide] | ≥ 80 | – | –
